The record followed here is patent publication US9296745B2, “Diacylglycerol acyltransferase 2 inhibitors” (Pfizer Inc., priority 2012, dated 2016).

Sequence of Human DGAT2 (hDGAT2) (Q96PD7 whole entry): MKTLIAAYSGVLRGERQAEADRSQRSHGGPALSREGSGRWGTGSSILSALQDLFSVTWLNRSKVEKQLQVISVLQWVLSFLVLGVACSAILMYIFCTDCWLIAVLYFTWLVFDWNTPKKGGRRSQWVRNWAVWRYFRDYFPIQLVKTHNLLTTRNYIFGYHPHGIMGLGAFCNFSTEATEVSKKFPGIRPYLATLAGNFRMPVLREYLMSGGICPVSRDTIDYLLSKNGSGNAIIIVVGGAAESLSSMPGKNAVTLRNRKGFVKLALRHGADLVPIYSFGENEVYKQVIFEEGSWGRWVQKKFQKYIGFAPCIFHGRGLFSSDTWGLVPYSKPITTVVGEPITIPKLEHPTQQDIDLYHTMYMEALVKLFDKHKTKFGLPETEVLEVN

For this test, the target named is Human DGAT2 (hDGAT2) (Homo sapiens (Human), UniProt Q96PD7). In words: In vitro DGAT2 assay, IC50 determination with hDGAT2 membrane fraction. Format: biochemical. The conditions noted are these: geometric mean; background for complete inhibition of DGAT2 obtained with 50 μM (1R,2R)-2-({3′-Fluoro-4′-[(6-fluoro-1,3-benzothiazol-2-yl)amino]-1,1′-biphenyl-4-yl}carbonyl)cyclopentanecarboxylic acid; read-out: DGAT2 IC50. As to the method:
Recombinant baculovirus for the FLAG-tagged hDGAT2 was generated in SF9 insect cells using Bac-to-Bac baculovirus expression system (Invitrogen) according to the manufacturer's protocol. For the expression of hDGAT2, SF9 cells (20 L) grown in Sf900II media were infected with hDGAT2 baculovirus at a multiplicity of infection of 1 in a Wave Bioreactor System 20/50P wave bag (GE Healthcare). After 40 hours of infection, the cells were then harvested by centrifugation at 5,000×g. The cell pellets were washed by resuspending in phosphate buffered saline (PBS) and collected by centrifugation at 5,000×g. The cell paste was flash frozen in liquid N2 and stored at −80° C. until needed. All operations below were at 4° C. unless otherwise noted. The cells were resuspended in lysis buffer (50 mM Tris-HCl, pH 8.0, 250 mM sucrose) including 1 mM ethylenediaminetetraacetic acid (EDTA) and the complete protease inhibitor cocktail (Roche Diagnostics) at a ratio of 3 ml buffer per 1 g cell paste. The cells were lysed by dounce homogenizer. The cell debris was removed by centrifugation at 1,000×g for 20 min, and the supernatant was centrifuged at 100,000×g for 1 hour. The resulting pellet was rinsed three times by filling ultracentrifuge tubes to the top with ice cold PBS before decanting. The washed pellet was resuspended with gentle stirring for 1 hour in lysis buffer containing 8 mM 3-[(3-cholamidopropyl)dimethylammonio]-1-propanesulfonate (CHAPS) at a ratio of 1 mL buffer per 1 g of original cell paste and centrifuged again at 100,000×g for 1 hour. The resulting supernatant (hDGAT2 membrane fraction) was aliquotted, flash frozen in liquid N2, and stored at −80° C. until use.
To 1 μL of compounds dissolved in 100% DMSO and spotted at the bottom of each well, 5 μL of 0.04% bovine serum albumin (BSA) (fatty acid free, Sigma Aldrich) was added and the mixture was incubated at room temperature for 20 minutes. To this mixture, 10 μL of hDGAT2 membrane fraction (0.01 mg/mL) diluted in 100 mM Hepes-NaOH, pH 7.4, 20 mM MgCl2 containing 200 nM methyl arachidonyl fluorophosphonate (Cayman Chemical; dried from ethyl acetate stock solution under argon gas and dissolved in DMSO as 5 mM stock) was added. […] The reaction mixtures were incubated at room temperature for 40 min and the reactions were stopped by addition of 5 μL of 1% H3PO4. After the addition of 45 μL MicroScint-E (Perkin-Elmer), plates were sealed with Top Seal-A covers (Perkin-Elmer) and phase partitioning of substrates and products was achieved using a HT-91100 microplate orbital shaker (Big Bear Automation, Santa Clara, Calif.). Plates were centrifuged at 2,000×g for 1 min in an Allegra 6R Centrifuge (Beckman Coulter) and then were sealed again with fresh covers before reading in a 1450 Microbeta Wallac Trilux Scintillation Counter (Perkin Elmer). DGAT2 activity was measured by quantifying the generated product [^14C]tridecanoylglycerol in the upper organic phase.
Inhibitors were tested at eleven different concentrations to generate IC50 values for each compound. […] Results are reported as geometric mean IC50 values.
In the case of `CC(C)(c1ccccc1)c1nc2ccc(N3CCC[C@@H](C(=O)N4CCCC4)C3)nc2[nH]1` [Example 22, (R)-(1-(2-(2-Phenylpropan-2-yl)-3H-imidazo[4,5-b]pyridin-5-yl)piperidin-3-yl)(pyrrolidin-1-yl)methanone], the half-inhibitory concentration (IC50) amounted to 0.357 µM.
With `CC(C)c1cccc(-c2nc3ccc(N4CCC[C@@H](C(=O)N5CCCC5)C4)nc3[nH]2)c1O` [Example 23, (R)-(1-(2-(2-Hydroxy-3-isopropylphenyl)-3H-imidazo[4,5-b]pyridin-5-yl)piperidin-3-yl)(pyrrolidin-1-yl)methanone], the half-inhibitory concentration (IC50) amounted to 0.432 µM.
Regarding `CC(C)(C)c1nc2ccc(N3CCC[C@@H](C(=O)N4CCCC4)C3)nc2[nH]1` [Example 24, (R)-(1-(2-tert-Butyl-3H-imidazo[4,5-b]pyridin-5-yl)piperidin-3-yl)(pyrrolidin-1-yl)methanone], the half-maximal inhibitory concentration (IC50) is 0.731 µM.
Take `O=C([C@@H]1CCCN(c2ccc3nc(-c4ccnc(N5CCOCC5)n4)[nH]c3n2)C1)N1CCCC1` [Example 25, (R)-(1-(2-(2-Morpholinopyrimidin-4-yl)-3H-imidazo[4,5-b]pyridin-5-yl)piperidin-3-yl)(pyrrolidin-1-yl)methanone]: the IC50 worked out at 0.297 µM.
Take `O=C1COc2ccc(-c3nc4ccc(N5CCC[C@@H](C(=O)N6CCCC6)C5)nc4[nH]3)cc2N1` [Example 27, (R)-6-(5-(3-(Pyrrolidine-1-carbonyl)piperidin-1-yl)-3H-imidazo[4,5-b]pyridin-2-yl)-2H-benzo[b][1,4]oxazin-3(4H)-one]: the IC50 was determined as 1.39 µM.
With `O=C([C@@H]1CCCN(c2ccc3nc(C4CC4)[nH]c3n2)C1)N1CCCC1` [Example 29, (R)-(1-(2-Cyclopropyl-3H-imidazo[4,5-b]pyridin-5-yl)piperidin-3-yl)(pyrrolidin-1-yl)methanone] the figure was 4.37 µM.
With `CS(=O)(=O)Nc1cccc(-c2nc3ccc(N4CCC[C@@H](C(=O)N5CCCC5)C4)nc3[nH]2)c1` [Example 30, (R)-N-(3-(5-(3-(Pyrrolidine-1-carbonyl)piperidin-1-yl)-3H-imidazo[4,5-b]pyridin-2-yl)phenyl)methanesulfonamide] the figure was 1.4 µM; with `CCc1cc(-c2nc3ccc(N4CCC[C@@H](C(=O)N5CCCC5)C4)nc3[nH]2)no1` [Example 32, (R)-(1-(2-(5-Ethylisoxazol-3-yl)-3H-imidazo[4,5-b]pyridin-5-yl)piperidin-3-yl)(pyrrolidin-1-yl)methanone], 0.239 µM; with `Cc1cncc(-c2nc3ccc(N4CCC[C@@H](C(=O)N5CCCC5)C4)nc3[nH]2)c1` [Example 33, (R)-(1-(2-(5-Methylpyridin-3-yl)-3H-imidazo[4,5-b]pyridin-5-yl)piperidin-3-yl)(pyrrolidin-1-yl)methanone], 0.097 µM.
With `O=C([C@@H]1CCCN(c2ccc3nc(-c4ccc(OC(F)(F)F)cc4)[nH]c3n2)C1)N1CCCC1` [Example 34, (R)-Pyrrolidin-1-yl(1-(2-(4-(trifluoromethoxy)phenyl)-3H-imidazo[4,5-b]pyridin-5-yl)piperidin-3-yl)methanone] the figure was 0.0248 µM; with `O=C([C@@H]1CCCN(c2ccc3nc(-c4cccc(F)c4)[nH]c3n2)C1)N1CCCC1` [Example 35, (R)-(1-(2-(3-Fluorophenyl)-3H-imidazo[4,5-b]pyridin-5-yl)piperidin-3-yl)(pyrrolidin-1-yl)methanone], 0.0212 µM; with `COc1cccc(-c2nc3ccc(N4CCC[C@@H](C(=O)N5CCCC5)C4)nc3[nH]2)c1` [Example 36, (R)-(1-(2-(3-Methoxyphenyl)-3H-imidazo[4,5-b]pyridin-5-yl)piperidin-3-yl)(pyrrolidin-1-yl)methanone], 0.0207 µM.
As for `COc1cccc(-c2nc3ccc(N4CCC[C@@H](C(=O)N5CCCC5)C4)nc3[nH]2)n1` [Example 37, (R)-(1-(2-(6-Methoxypyridin-2-yl)-3H-imidazo[4,5-b]pyridin-5-yl)piperidin-3-yl)(pyrrolidin-1-yl)methanone], the IC50 came out at 0.0126 µM.
As to `O=C([C@@H]1CCCN(c2ccc3nc(-c4cccc(N5CCCC5)n4)[nH]c3n2)C1)N1CCCC1` [Example 38, (R)-Pyrrolidin-1-yl(1-(2-(6-(pyrrolidin-1-yl)pyridin-2-yl)-3H-imidazo[4,5-b]pyridin-5-yl)piperidin-3-yl)methanone], the IC50 was 0.00781 µM.
As to `O=C([C@@H]1CCCN(c2ccc3nc(-c4coc(-c5ccccc5)n4)[nH]c3n2)C1)N1CCCC1` [Example 39, (R)-(1-(2-(2-Phenyloxazol-4-yl)-3H-imidazo[4,5-b]pyridin-5-yl)piperidin-3-yl)(pyrrolidin-1-yl)methanone], the half-inhibitory concentration (IC50) worked out at 0.00685 µM.
With `CCc1csc(-c2nc3ccc(N4CCC[C@@H](C(=O)N5CCCC5)C4)nc3[nH]2)n1` [Example 40, (R)-(1-(2-(4-Ethylthiazol-2-yl)-3H-imidazo[4,5-b]pyridin-5-yl)piperidin-3-yl)(pyrrolidin-1-yl)methanone] the figure was 0.00647 µM.
With `O=C([C@@H]1CCCN(c2ccc3nc(-c4cccc(Cl)c4)[nH]c3n2)C1)N1CCCC1` [Example 41, (R)-(1-(2-(3-Chlorophenyl)-3H-imidazo[4,5-b]pyridin-5-yl)piperidin-3-yl)(pyrrolidin-1-yl)methanone] the figure was 0.00456 µM; with `CC(C)(C)c1csc(-c2nc3ccc(N4CCC[C@@H](C(=O)N5CCCC5)C4)nc3[nH]2)n1` [Example 42, (R)-(1-(2-(4-tert-Butylthiazol-2-yl)-3H-imidazo[4,5-b]pyridin-5-yl)piperidin-3-yl)(pyrrolidin-1-yl)methanone], 0.00318 µM; with `O=C([C@@H]1CCCN(c2ccc3nc(-c4cccc(OC(F)F)c4)[nH]c3n2)C1)N1CCCC1` [Example 43, (R)-(1-(2-(3-(Difluoromethoxy)phenyl)-3H-imidazo[4,5-b]pyridin-5-yl)piperidin-3-yl)(pyrrolidin-1-yl)methanone], 0.00741 µM.
For `Cc1cccc(-c2nc3ccc(N4CCC[C@@H](C(=O)N5CCCC5)C4)nc3[nH]2)n1` [Example 44, (R)-(1-(2-(6-Methylpyridin-2-yl)-3H-imidazo[4,5-b]pyridin-5-yl)piperidin-3-yl)(pyrrolidin-1-yl)methanone], the IC50 was 0.0365 µM.
For `N#Cc1cccc(-c2nc3ccc(N4CCC[C@@H](C(=O)N5CCCC5)C4)nc3[nH]2)c1` [Example 47, (R)-3-(5-(3-(Pyrrolidine-1-carbonyl)piperidin-1-yl)-3H-imidazo[4,5-b]pyridin-2-yl)benzonitrile] the value was 0.0345 µM; for `O=C([C@@H]1CCCN(c2ccc3nc(COc4ccc(Cl)cc4)[nH]c3n2)C1)N1CCCC1` [Example 48], 0.0107 µM.
In the case of `O=C([C@@H]1CCCN(c2ccc3nc(C4(c5ccccc5)CC4)[nH]c3n2)C1)N1CCCC1` [Example 51, (R)-(1-(2-(1-Phenylcyclopropyl)-3H-imidazo[4,5-b]pyridin-5-yl)piperidin-3-yl)(pyrrolidin-1-yl)methanone], the concentration for half-maximal inhibition (IC50) is 0.0697 µM.
For `O=C([C@@H]1CCCN(c2ccc3nc(C4CCC4)[nH]c3n2)C1)N1CCCC1` [Example 53, (R)-(1-(2-Cyclobutyl-3H-imidazo[4,5-b]pyridin-5-yl)piperidin-3-yl)(pyrrolidin-1-yl)methanone] the value was 2.53 µM; for `Cc1cccc(=O)n1Cc1nc2ccc(N3CCC[C@@H](C(=O)N4CCCC4)C3)nc2[nH]1` [Example 57, (R)-6-Methyl-1-((5-(3-(pyrrolidine-1-carbonyl)piperidin-1-yl)-3H-imidazo[4,5-b]pyridin-2-yl)methyl)pyridin-2(1H)-one], 0.702 µM.
For `c1ccc(C2CCCN(c3ccc4nc(-c5ccnc(C6CC6)n5)[nH]c4n3)C2)nc1` (centres unmarked) [Example 59, 2-(2-Cyclopropylpyrimidin-4-yl)-5-(3-(pyridin-2-yl)piperidin-1-yl)-3H-imidazo[4,5-b]pyridine] the value was 0.858 µM.

By IC50 is commonly meant the point on the concentration scale where inhibition reaches its midpoint.
